From PubChem BioAssay AID1918946 (Molecular Pharmacology Branch, DTP, NCI, 2023)

System: 885512-296-R-J2-PDC complex spheroid viability
Assay: Anticancer human tumor 885512-296-R-J2-PDC patient-derived breast carcinoma cell line growth inhibition
Settings: for IC50: curve of first compound; for viability, T/C: stronger effect = lower value; active means viability on the fitted dose curve at most 10% of control; inactive means the rest
In short: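 Complex spheroids of tumor cells with HUVEC and human MSCs, exposed to iadademstat combined with other agents. Each agent tested in half-log steps from near clinical Cmax (else 10 microM top), DMSO ≤0.25%.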

[1] = second compound 0.1 µM, first compound 0.0316 µM
[2] = second compound 0.1 µM, first compound 0.1 µM
[3] = second compound 0.1 µM, first compound 0.316 µM
[4] = second compound 0.1 µM, first compound 1 µM
[5] = second compound 0.316 µM, first compound 0.0316 µM
[6] = second compound 0.316 µM, first compound 0.1 µM
[7] = second compound 0.316 µM, first compound 0.316 µM
[8] = second compound 0.316 µM, first compound 1 µM
[9] = second compound 1 µM, first compound 0.0316 µM
[10] = second compound 1 µM, first compound 0.1 µM
[11] = second compound 1 µM, first compound 0.316 µM
[12] = second compound 1 µM, first compound 1 µM
[13] = second compound 3.16 µM, first compound 0.0316 µM
[14] = second compound 3.16 µM, first compound 0.1 µM
[15] = second compound 3.16 µM, first compound 0.316 µM
[16] = second compound 3.16 µM, first compound 1 µM
[17] = second compound 10 µM, first compound 0.0316 µM
[18] = second compound 10 µM, first compound 0.1 µM
[19] = second compound 10 µM, first compound 0.316 µM
[20] = second compound 10 µM, first compound 1 µM
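Further: spheroids exposed to agents for 7 days before viability read.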

COc1cc(C2c3cc4c(cc3C(OC3OC5COC(C)OC5C(O)C3O)C3COC(=O)C23)OCO4)cc(OC)c1O (stereo not given) + NC1CC1c1ccc(-c2cccc(O)c2)cc1
0.0358 µM: IC50 (second compound 3.16 µM)
0.019 µM: IC50 (second compound 10 µM)
0.0484 µM: IC50 (second compound 0.316 µM)
active: viability, T/C (second compound 0.1 µM, first compound 0.3 µM) 5.27% | viability, T/C (second compound 0.1 µM, first compound 0.949 µM) 3.81% | viability, T/C (second compound 0.1 µM, first compound 3 µM) 3.41% | viability, T/C (second compound 0.316 µM, first compound 0.3 µM) 4.71% | viability, T/C (second compound 0.316 µM, first compound 0.949 µM) 3.36% | viability, T/C (second compound 0.316 µM, first compound 3 µM) 2.8% | viability, T/C (second compound 1 µM, first compound 0.3 µM) 5.06% | viability, T/C (second compound 1 µM, first compound 0.949 µM) 4% | viability, T/C (second compound 1 µM, first compound 3 µM) 3.54% | viability, T/C (second compound 3.16 µM, first compound 0.3 µM) 3.77% | viability, T/C (second compound 3.16 µM, first compound 0.949 µM) 3.77% | viability, T/C (second compound 3.16 µM, first compound 3 µM) 2.6% | viability, T/C (second compound 10 µM, first compound 0.0949 µM) 9.86% | viability, T/C (second compound 10 µM, first compound 0.3 µM) 3.55% | viability, T/C (second compound 10 µM, first compound 0.949 µM) 3.7% | viability, T/C (second compound 10 µM, first compound 3 µM) 3.37%
0.0517 µM: IC50 (second compound 0.1 µM)
0.0467 µM: IC50 (second compound 1 µM)
inactive: viability, T/C (second compound 0.1 µM, first compound 0.00949 µM) 115% | viability, T/C (second compound 0.1 µM, first compound 0.03 µM) 78.2% | viability, T/C (second compound 0.1 µM, first compound 0.0949 µM) 18.4% | viability, T/C (second compound 0.316 µM, first compound 0.00949 µM) 111% | viability, T/C (second compound 0.316 µM, first compound 0.03 µM) 73.5% | viability, T/C (second compound 0.316 µM, first compound 0.0949 µM) 17% | viability, T/C (second compound 1 µM, first compound 0.00949 µM) 113% | viability, T/C (second compound 1 µM, first compound 0.03 µM) 71% | viability, T/C (second compound 1 µM, first compound 0.0949 µM) 16.5% | viability, T/C (second compound 3.16 µM, first compound 0.00949 µM) 100% | viability, T/C (second compound 3.16 µM, first compound 0.03 µM) 56% | viability, T/C (second compound 3.16 µM, first compound 0.0949 µM) 17.2% | viability, T/C (second compound 10 µM, first compound 0.00949 µM) 68.4% | viability, T/C (second compound 10 µM, first compound 0.03 µM) 37.9%

Nc1ncn(C2CC(O)C(CO)O2)c(=O)n1 (stereo not given) + NC1CC1c1ccc(-c2cccc(O)c2)cc1
inactive: viability, T/C (second compound 0.1 µM, first compound 0.00316 µM) 116% | viability, T/C (second compound 0.1 µM, first compound 0.01 µM) 106% | viability, T/C [1] 79% | viability, T/C [2] 41.6% | viability, T/C [3] 21.4% | viability, T/C [4] 13.3% | viability, T/C (second compound 0.316 µM, first compound 0.00316 µM) 106% | viability, T/C (second compound 0.316 µM, first compound 0.01 µM) 112% | viability, T/C [5] 70.5% | viability, T/C [6] 43.1% | viability, T/C [7] 23.4% | viability, T/C [8] 15.9% | viability, T/C (second compound 1 µM, first compound 0.00316 µM) 107% | viability, T/C (second compound 1 µM, first compound 0.01 µM) 99.4% | viability, T/C [9] 81.2% | viability, T/C [10] 44.5% | viability, T/C [11] 22.9% | viability, T/C [12] 13.4% | viability, T/C (second compound 3.16 µM, first compound 0.00316 µM) 95.5% | viability, T/C (second compound 3.16 µM, first compound 0.01 µM) 103% | viability, T/C [13] 73.1% | viability, T/C [14] 40.6% | viability, T/C [15] 21.7% | viability, T/C [16] 13.4% | viability, T/C (second compound 10 µM, first compound 0.00316 µM) 72% | viability, T/C (second compound 10 µM, first compound 0.01 µM) 69.5% | viability, T/C [17] 57.5% | viability, T/C [18] 34.6% | viability, T/C [19] 18.3% | viability, T/C [20] 11.4%
0.0724 µM: IC50 (second compound 3.16 µM)
0.0861 µM: IC50 (second compound 1 µM)
0.0779 µM: IC50 (second compound 0.1 µM)
0.0464 µM: IC50 (second compound 10 µM)
0.0725 µM: IC50 (second compound 0.316 µM)

CC1COCCN1c1cc(C2(S(C)(=N)=O)CC2)nc(-c2ccnc3[nH]ccc23)n1 (stereo not given) + NC1CCC(NC2CC2c2ccccc2)CC1
active: viability, T/C [4] 7.78% | viability, T/C (second compound 0.1 µM, first compound 3.16 µM) 9.98% | viability, T/C (second compound 0.1 µM, first compound 10 µM) 4.57% | viability, T/C [8] 4.43% | viability, T/C (second compound 0.316 µM, first compound 3.16 µM) 4.53% | viability, T/C (second compound 0.316 µM, first compound 10 µM) 7.27% | viability, T/C [12] 5.72% | viability, T/C (second compound 1 µM, first compound 3.16 µM) 7% | viability, T/C (second compound 1 µM, first compound 10 µM) 4.61% | viability, T/C [16] 5.73% | viability, T/C (second compound 3.16 µM, first compound 3.16 µM) 4.8% | viability, T/C (second compound 3.16 µM, first compound 10 µM) 4.21% | viability, T/C [19] 9.91% | viability, T/C [20] 3.2% | viability, T/C (second compound 10 µM, first compound 3.16 µM) 3.14% | viability, T/C (second compound 10 µM, first compound 10 µM) 1.66%
0.166 µM: IC50 (second compound 0.1 µM) | IC50 (second compound 1 µM)
inactive: viability, T/C [1] 98.8% | viability, T/C [2] 77.3% | viability, T/C [3] 15.1% | viability, T/C [5] 94.7% | viability, T/C [6] 71.4% | viability, T/C [7] 15.3% | viability, T/C [9] 98.8% | viability, T/C [10] 75.8% | viability, T/C [11] 17.4% | viability, T/C [13] 108% | viability, T/C [14] 56.5% | viability, T/C [15] 13.4% | viability, T/C [17] 84.5% | viability, T/C [18] 59.1%
0.155 µM: IC50 (second compound 0.316 µM)
0.124 µM: IC50 (second compound 10 µM)
0.119 µM: IC50 (second compound 3.16 µM)
